IC50 data for 15 molecules are collected here from patent publication US8901118B2, “Compounds and methods for kinase modulation, and indications therefor” (Plexxikon Inc., priority 2010, dated 2014).

The structures appear in SMILES notation.

The target in this assay is T1, BCR-KIT BaF3 cells (Homo sapiens, UniProt P10721).
T1 construct: fused on or other part: P11274 (Breakpoint cluster region protein)
The experiment in a line: BaF3 BCR-KIT cell proliferation assay (ATPlite). The conditions noted are these: read-out: Inhibition of Cell Proliferation IC50, BCR/BaF3 Kit. It counts as cell-based. The procedure, abridged:
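Cells are plated overnight: BaF3 at 10,000/well in G418 medium without WEHI/IL-3, MV-4-11 at 25,000/well in IMDM with 10% FBS. An 8-point 1:3 compound titration (10 μM top) is then added, and plates are incubated 3 days at 37 °C before ATPlite readout and IC50 determination.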
(In general: Cellular ATP, detected with luciferase, serves as a proxy for viable cell number.)

T1 sequence (P10721 589-937): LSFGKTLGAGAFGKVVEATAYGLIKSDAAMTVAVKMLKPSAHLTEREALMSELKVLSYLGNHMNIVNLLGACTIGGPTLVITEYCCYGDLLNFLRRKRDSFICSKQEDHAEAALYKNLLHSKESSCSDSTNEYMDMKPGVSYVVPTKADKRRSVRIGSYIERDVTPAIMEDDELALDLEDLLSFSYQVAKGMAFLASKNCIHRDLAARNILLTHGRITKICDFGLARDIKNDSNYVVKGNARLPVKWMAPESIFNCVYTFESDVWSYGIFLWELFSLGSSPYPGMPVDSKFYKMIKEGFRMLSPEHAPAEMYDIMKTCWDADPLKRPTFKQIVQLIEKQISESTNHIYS

With `Clc1cnc2[nH]cc(Cc3cnc(NC4CCCC4)nc3)c2c1` [Compound P-3003, [5-(5-Chloro-1H-pyrrolo[2,3-b]pyridin-3-ylmethyl)-pyrimidin-2-yl]-cyclopentyl-amine], the IC50 was > 1 µM.
The result for `Clc1cnc2[nH]cc(Cc3cnc(NC4CC4)nc3)c2c1` [Compound P-3005, [5-(5-Chloro-1H-pyrrolo[2,3-b]pyridin-3-ylmethyl)-pyrimidin-2-yl]-cyclopropyl-amine] reads > 1 µM; that for `COc1ccccc1Nc1ncc(Cc2c[nH]c3ncc(Cl)cc23)cn1` [Compound P-3016, [5-(5-Chloro-1H-pyrrolo[2,3-b]pyridin-3-ylmethyl)-pyrimidin-2-yl]-(2-methoxy-phenyl)-amine], > 1 µM; that for `Fc1cccc(Nc2ncc(Cc3c[nH]c4ncc(Cl)cc34)cn2)c1` [Compound P-3017, [5-(5-Chloro-1H-pyrrolo[2,3-b]pyridin-3-ylmethyl)-pyrimidin-2-yl]-(3-fluoro-phenyl)-amine], > 1 µM.
The result for `COc1ccc(Nc2ncc(Cc3c[nH]c4ncc(C)cc34)cn2)cn1` [Compound P-3020, (6-Methoxy-pyridin-3-yl)-[5-(5-methyl-1H-pyrrolo[2,3-b]pyridin-3-ylmethyl)-pyrimidin-2-yl]-amine] reads < 0.1 µM; that for `COc1ccc(Nc2ncc(Cc3c[nH]c4ncc(C)cc34)cn2)cc1` [Compound P-3021, (4-Methoxy-phenyl)-[5-(5-methyl-1H-pyrrolo[2,3-b]pyridin-3-ylmethyl)-pyrimidin-2-yl]-amine], < 0.1 µM; that for `COc1cc(Nc2ncc(Cc3c[nH]c4ncc(C)cc34)cn2)ccc1F` [Compound P-3022, (4-Fluoro-3-methoxy-phenyl)-[5-(5-methyl-1H-pyrrolo[2,3-b]pyridin-3-ylmethyl)-pyrimidin-2-yl]-amine], < 0.1 µM.
The result for `COc1ccc(Nc2ncc(Cc3c[nH]c4ncc(C)cc34)cn2)cc1F` [Compound P-3023, (3-Fluoro-4-methoxy-phenyl)-[5-(5-methyl-1H-pyrrolo[2,3-b]pyridin-3-ylmethyl)-pyrimidin-2-yl]-amine] reads < 0.1 µM; that for `CCCOc1ccc(Nc2ncc(Cc3c[nH]c4ncc(C)cc34)cn2)cc1` [Compound P-3024, [5-(5-Methyl-1H-pyrrolo[2,3-b]pyridin-3-ylmethyl)-pyrimidin-2-yl]-(4-propoxy-phenyl)-amine], < 0.1 µM; that for `CCc1ccc(Nc2ncc(Cc3c[nH]c4ncc(C)cc34)cn2)cc1` [Compound P-3025, (4-Ethyl-phenyl)-[5-(5-methyl-1H-pyrrolo[2,3-b]pyridin-3-ylmethyl)-pyrimidin-2-yl]-amine], < 0.01 µM.
Turning to `CCOc1ccc(Nc2ncc(Cc3c[nH]c4ncc(C)cc34)cn2)cc1` [Compound P-3026, (4-Ethoxy-phenyl)-[5-(5-methyl-1H-pyrrolo[2,3-b]pyridin-3-ylmethyl)-pyrimidin-2-yl]-amine], the IC50 was < 0.1 µM.
The result for `CCOc1ccc(Nc2ncc(Cc3c[nH]c4ncc(C)cc34)cn2)cn1` [Compound P-3027, (6-Ethoxy-pyridin-3-yl)-[5-(5-methyl-1H-pyrrolo[2,3-b]pyridin-3-ylmethyl)-pyrimidin-2-yl]-amine] reads < 0.1 µM; that for `Cc1cnc2[nH]cc(Cc3cnc(Nc4cc(-c5ccc(F)cc5)n[nH]4)nc3)c2c1` [Compound P-3028, [5-(4-Fluoro-phenyl)-2H-pyrazol-3-yl]-[5-(5-methyl-1H-pyrrolo[2,3-b]pyridin-3-ylmethyl)-pyrimidin-2-yl]-amine], < 0.1 µM.
Under `Cc1cnc2[nH]cc(Cc3cnc(Nc4cc(C(C)(C)C)n[nH]4)nc3)c2c1` [Compound P-3029, (5-tert-Butyl-2H-pyrazol-3-yl)-[5-(5-methyl-1H-pyrrolo[2,3-b]pyridin-3-ylmethyl)-pyrimidin-2-yl]-amine] stands < 1 µM; under `Cc1cnc2[nH]cc(Cc3cnc(Nc4ccc(C(C)(C)C)cc4)nc3)c2c1` [Compound P-3030, (4-tert-Butyl-phenyl)-[5-(5-methyl-1H-pyrrolo[2,3-b]pyridin-3-ylmethyl)-pyrimidin-2-yl]-amine amine], < 0.01 µM.
